Assay results taken from ChEMBL document CHEMBL1201862, “PubChem BioAssay data set” (2004).
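Step 1: Grow cells in 96-well plates. Step 2: Expose to compound for 48 hours at 5 concentrations. Step 3: Interpolate endpoints linearly; if unreached, use highest concentration. At the GI50, growth is halved.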 Activity calls are given as the source filed them. Cut-off read from the data, not from the text of the source: active = GI50 up to about 1.1 µM and inactive = higher.

Legend:
Assay in all cases: inhibition of tumour cell growth, NCI panel, 48 h
[1] = system: K562
[2] = system: 786-0
[3] = system: LOX IMVI
[4] = system: T47D
[5] = system: UACC-257
[6] = system: MCF7
[7] = system: SF-268
[8] = system: HOP-92
[9] = system: Hs-578T
[10] = system: MDA-MB-435
[11] = system: TK-10
[12] = system: UO-31
[13] = system: EKVX
[14] = system: CAKI-1
[15] = system: SNB-75
[16] = system: SN12C
[17] = system: OVCAR-3
[18] = system: OVCAR-4
[19] = system: NCI-H226

c1ccc2cc(OCC3CO3)c(OCC3CO3)cc2c1 (configuration not stated)
GI50 [1]: 3.73 µM (inactive) | GI50 [2]: 1.54 µM (inactive) | GI50 [3]: 1.03 µM (active) | GI50 [4]: 10.9 µM (inactive) | GI50 [5]: 10.2 µM (inactive) | GI50 [6]: 0.388 µM (active) | GI50 [7]: 0.891 µM (active) | GI50 [8]: 8.55 µM (inactive) | GI50 [9]: 3.89 µM (inactive) | GI50 [10]: 10.1 µM (inactive) | GI50 [11]: 12.1 µM (inactive) | GI50 [12]: 2.37 µM (inactive) | GI50 [13]: 11.4 µM (inactive) | GI50 [14]: 4.09 µM (inactive) | GI50 [15]: 4.84 µM (inactive) | GI50 [16]: 2.37 µM (inactive) | GI50 [17]: 13.4 µM (inactive)

Nc1csc(-c2scc3c2OCCO3)c1N
GI50 [18]: 26.6 µM (inactive) | GI50 [1]: 24.4 µM (inactive) | GI50 [2]: 17.3 µM (inactive) | GI50 [3]: 16 µM (inactive) | GI50 [5]: 16.7 µM (inactive) | GI50 [6]: 16.4 µM (inactive) | GI50 [7]: 18.8 µM (inactive) | GI50 [8]: 19.4 µM (inactive) | GI50 [9]: 27.8 µM (inactive) | GI50 [10]: 15.5 µM (inactive) | GI50 [19]: 17.3 µM (inactive) | GI50 [11]: 33.1 µM (inactive) | GI50 [12]: 17.9 µM (inactive) | GI50 [13]: 18.2 µM (inactive) | GI50 [14]: 32.1 µM (inactive) | GI50 [16]: 17.3 µM (inactive) | GI50 [17]: 14.8 µM (inactive)

O=P1(c2ccccc2)c2ccccc2-c2ccccc21
GI50 [1]: 86.9 µM (inactive) | GI50 [2]: > 100 µM (inactive) | GI50 [3]: > 100 µM (inactive) | GI50 [5]: > 100 µM (inactive) | GI50 [6]: > 100 µM (inactive) | GI50 [7]: > 100 µM (inactive) | GI50 [8]: 13.9 µM (inactive) | GI50 [9]: > 100 µM (inactive) | GI50 [10]: > 100 µM (inactive) | GI50 [19]: > 100 µM (inactive) | GI50 [11]: > 100 µM (inactive) | GI50 [12]: > 100 µM (inactive) | GI50 [13]: > 100 µM (inactive) | GI50 [14]: 81.8 µM (inactive) | GI50 [15]: 68.9 µM (inactive) | GI50 [16]: > 100 µM (inactive) | GI50 [17]: 71 µM (inactive)

CC1(C)OCC(C2OC(OC(=O)c3ccc([N+](=O)[O-])cc3)C3OC(C)(C)OC23)O1 (configuration not stated)
GI50 [18]: > 100 µM (inactive) | GI50 [1]: > 100 µM (inactive) | GI50 [2]: 51.8 µM (inactive) | GI50 [3]: > 100 µM (inactive) | GI50 [5]: > 100 µM (inactive) | GI50 [6]: > 100 µM (inactive) | GI50 [7]: 20.5 µM (inactive) | GI50 [10]: > 100 µM (inactive) | GI50 [19]: > 100 µM (inactive) | GI50 [11]: > 100 µM (inactive) | GI50 [12]: 66.1 µM (inactive) | GI50 [13]: 61.8 µM (inactive) | GI50 [14]: > 100 µM (inactive) | GI50 [15]: 16.6 µM (inactive) | GI50 [16]: > 100 µM (inactive) | GI50 [17]: > 100 µM (inactive)

O=c1oc2nc(-c3ccccc3)cc(C(F)(F)F)c2n1Cc1ccccc1
GI50 [18]: 11.6 µM (inactive) | GI50 [1]: 1.53 µM (inactive) | GI50 [2]: 5.43 µM (inactive) | GI50 [3]: 9.71 µM (inactive) | GI50 [4]: 3.24 µM (inactive) | GI50 [5]: > 37.8 µM (inactive) | GI50 [6]: 0.995 µM (active) | GI50 [7]: > 25 µM (inactive) | GI50 [8]: 85.5 µM (inactive) | GI50 [10]: 0.659 µM (active) | GI50 [19]: > 100 µM (inactive) | GI50 [11]: 46.6 µM (inactive) | GI50 [13]: 7.03 µM (inactive) | GI50 [14]: 7.8 µM (inactive) | GI50 [16]: 5.9 µM (inactive) | GI50 [17]: 4.06 µM (inactive)

O=C1CCCC2=C1CC1=C(CCCC1=O)N2c1ccccc1C(=O)O
GI50 [18]: > 100 µM (inactive) | GI50 [1]: > 100 µM (inactive) | GI50 [2]: > 100 µM (inactive) | GI50 [3]: > 100 µM (inactive) | GI50 [6]: > 100 µM (inactive) | GI50 [7]: > 100 µM (inactive) | GI50 [8]: > 100 µM (inactive) | GI50 [9]: > 100 µM (inactive) | GI50 [19]: > 100 µM (inactive) | GI50 [11]: > 100 µM (inactive) | GI50 [12]: > 100 µM (inactive) | GI50 [13]: > 100 µM (inactive) | GI50 [14]: > 100 µM (inactive) | GI50 [15]: > 100 µM (inactive) | GI50 [16]: > 100 µM (inactive) | GI50 [17]: > 100 µM (inactive)

Nc1ccc(Nc2cc(O)nc(O)n2)cc1
GI50 [18]: > 100 µM (inactive) | GI50 [1]: > 100 µM (inactive) | GI50 [2]: > 100 µM (inactive) | GI50 [3]: > 100 µM (inactive) | GI50 [4]: 39.3 µM (inactive) | GI50 [5]: > 100 µM (inactive) | GI50 [6]: > 100 µM (inactive) | GI50 [7]: > 100 µM (inactive) | GI50 [9]: > 100 µM (inactive) | GI50 [10]: > 100 µM (inactive) | GI50 [19]: > 100 µM (inactive) | GI50 [11]: > 100 µM (inactive) | GI50 [13]: > 100 µM (inactive) | GI50 [14]: > 100 µM (inactive) | GI50 [16]: > 100 µM (inactive) | GI50 [17]: > 100 µM (inactive)

O=[N+]([O-])c1ccc(-c2nnc(C34CC5CC(CC(C5)C3)C4)o2)cc1
GI50 [18]: > 100 µM (inactive) | GI50 [1]: > 100 µM (inactive) | GI50 [2]: > 100 µM (inactive) | GI50 [3]: > 100 µM (inactive) | GI50 [4]: > 100 µM (inactive) | GI50 [7]: > 100 µM (inactive) | GI50 [8]: > 100 µM (inactive) | GI50 [9]: > 100 µM (inactive) | GI50 [10]: > 100 µM (inactive) | GI50 [19]: > 100 µM (inactive) | GI50 [11]: > 100 µM (inactive) | GI50 [12]: > 100 µM (inactive) | GI50 [13]: > 100 µM (inactive) | GI50 [14]: > 100 µM (inactive) | GI50 [15]: > 100 µM (inactive) | GI50 [16]: > 100 µM (inactive) | GI50 [17]: > 100 µM (inactive)
